Values of other authors, collected in patent US20100099894A1, “Method for the Synthesis of Cyclic Acetals by the Reactive Extraction of a Polyol in a Concentrated Solution” (priority 2006, published 2010).

Conditions: for solubility in water: aqueous solution, at room temperature, data from Yaw's Handbook

SMILES	miscibility in water (background description of Solketal)	solubility in water [mg/kg]
CC1(C)OCC(CO)O1 (centres unmarked) [Solketal]	miscible in water	
CC(=O)c1ccccc1 [acetophenone]		6842
O=Cc1ccccc1 [benzaldehyde]		6570
CC(C)CC(=O)CC(C)C [diisobutyl ketone]		2640
CC(C)C(=O)C(C)C [diisopropyl ketone]		5700
CCCCCCC=O [n-heptanal]		1516
CCCCCCCC=O [n-octanal]		370
CCCCC=O [pentanal]		11700
